Reference: BindingDB's records for doi:10.1016/j.bmc.2011.09.058 (National Chemical Laboratory (Csir-Ncl), 2011)

Biological target: T1, Papain (Carica papaya, UniProt P00784)
T1 sequence (P00784 whole entry): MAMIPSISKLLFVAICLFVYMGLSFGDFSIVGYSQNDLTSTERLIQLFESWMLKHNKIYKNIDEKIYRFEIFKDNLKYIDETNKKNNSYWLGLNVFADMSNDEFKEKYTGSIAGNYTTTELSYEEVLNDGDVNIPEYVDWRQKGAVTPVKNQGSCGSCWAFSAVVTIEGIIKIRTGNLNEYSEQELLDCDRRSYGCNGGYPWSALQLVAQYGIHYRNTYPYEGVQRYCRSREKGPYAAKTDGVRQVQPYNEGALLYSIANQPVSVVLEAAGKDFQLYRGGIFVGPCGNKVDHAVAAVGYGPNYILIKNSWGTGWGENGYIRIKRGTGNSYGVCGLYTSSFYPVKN
Test: Inhibition of papaya papain using BAPNA as substrate assessed as p-nitroaniline release by spectrophotometric analysis

IC50 [µM]	Structure (SMILES)
> 200	CCOP(=O)(CC=C(NC(=O)[C@H](CC(C)C)NC(=O)OCc1ccccc1)c1ccccc1)OCC
> 200	CCOP(=O)(CC=C(NC(=O)[C@H](CC(C)C)NC(=O)OC(C)(C)C)c1ccccc1)OCC
> 200	CCOP(=O)(CC=C(NC(=O)[C@H](Cc1c[nH]c2ccccc12)NC(=O)OCc1ccccc1)c1ccccc1)OCC
> 200	CCOP(=O)(CC=C(NC(=O)[C@H](CC(C)C)NC(=O)OCC1c2ccccc2-c2ccccc21)c1ccccc1)OCC
